One compound from ChEMBL document CHEMBL3217756, “Biological and computational evaluation of an oxadiazole derivative (MD77) as a new lead for direct STAT3 inhibitors” (Medchemcomm, 2012) can be followed below.

The assay in a line: Cytotoxicity against human Hs 578T cells after 48 hrs by sulforhodamine B assay. The class given is functional.

Molecules are shown by their SMILES.

Turning to `O=C(Nc1nonc1-c1ccc(Cl)cc1)c1ccc(C(F)(F)F)cc1`, the GI50 runs as follows: (read-out: GI50) 2.53 µM; (read-out: pGI50 (converted)) 2.51 µM. Besides, the CC50 is over 100 µM (read-out: LC50 (the source's name)) and over 100 µM (read-out: pLC50 (the source's name) (converted)). Moreover, the TGI (read-out: TGI) was over 100 µM and the TGI (read-out: pTGI) was over 100 µM.
